Values quoted from earlier work, collected in patent US20260345480A1, “PHARMACEUTICAL DOSAGE FORMS FOR PULSATILE RELEASE” (CHIESI FARMACEUTICI S.P.A., priority 2023, published 2026).

System: animals
Conditions: continuous infusion for periods longer than 24 hours

Cc1c(O)c(=O)ccn1C [deferiprone]
toxicity on continuous infusion (in words): potential toxicity of deferiprone observed in animals undergoing continuous infusion for periods longer than 24 hours
